Data reported in patent US10870638B2, “Pyridazinone compound or its salt, and herbicide containing it” (ISHIHARA SANGYO KAISHA, LTD., priority 2016, dated 2020).

What was measured:
Format in all cases: in vivo
Conditions in all cases: active ingredient amount 31 g/ha, 14th day after application
[1] = tested on: wheat (Triticum aestivum L.); assay: Test Example 2: soil application on the day after sowing, growth inhibition rate on 14th day
Method in brief: (§1)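 Upland soil pots; sowing, then next-day soil spraying of compound formulations (1,000 L/ha water) at defined a.i. doses. Day-14 visual rating of inhibition on a 0–100 scale, where 100 means complete kill.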

[2] = tested on: redroot pigweed (Amaranthus retroflexus L.); assay: as above
Method in brief: as §1

[3] = tested on: green foxtail (Setaria viridis L.); assay: as above
Method in brief: as §1

[4] = tested on: velvetleaf (Abutilon theophrasti MEDIC.); assay: as above
Method in brief: as §1

[5] = tested on: soybean (Glycine max Merr.); assay: as above
Method in brief: as §1

[6] = tested on: crabgrass (Digitaris sanquinalis L.); assay: as above
Method in brief: as §1

rice (Oryza sativa L.) [7] = assay: as above
Method in brief: as §1

[8] = tested on: prickly sida (Sida spinosa L.); assay: as above
Method in brief: as §1

corn (Zea mays L.) [9] = assay: as above
Method in brief: as §1

[10] = tested on: barnyardgrass (Echinochloa crus-qalli L.); assay: as above
Method in brief: as §1

[11] = tested on: crabgrass (Digitaria sanquinalis L.); assay: Test Example 1: foliar treatment, growth inhibition rate on 14th day
Method in brief: (§2)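 Visual 0–100% inhibition scoring (100 = complete kill) at 14 days after foliar treatment of soil-grown seedlings at species-specific leaf stages, with the compound sprayed as a wettable powder or emulsifiable concentrate dilution.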

[12] = tested on: italian ryegrass (Lolium multiflorum Lam.); assay: as above
Method in brief: as §2

[13] = tested on: wheat (Triticum aestivum L.); assay: as above
Method in brief: as §2

[14] = tested on: redroot pigweed (Amaranthus retroflexus L.); assay: as above
Method in brief: as §2

[15] = tested on: green foxtail (Setaria viridis L.); assay: as above
Method in brief: as §2

[16] = tested on: soybean (Glycine max Merr.); assay: as above
Method in brief: as §2

[17] = tested on: wild oat (Avena fatua L.); assay: as above
Method in brief: as §2

rice (Oryza sativa L.) [18] = assay: as above
Method in brief: as §2

corn (Zea mays L.) [19] = assay: as above
Method in brief: as §2

[20] = tested on: barnyardgrass (Echinochloa crus-qalli L.); assay: as above
Method in brief: as §2

In the case of `CCc1ccc(Oc2nc3cc(Cl)ccc3o2)cc1-c1c(O)c(C)nn(C)c1=O` [Compound 2-161], the “Growth inhibition rate (%) Wheat” value [1] is reported as 0%, the “Growth inhibition rate (%) Redroot pigweed” value [2] is reported as 0% and the “Growth inhibition rate (%) Green foxtail” value [3] is reported as 0%. For the same compound, the “Growth inhibition rate (%) Velvetleaf” value [4] was 0%, the “Growth inhibition rate (%) Soybean” value [5] was 0% and the “Growth inhibition rate (%) Crabgrass” value [6] was 0%. The “Growth inhibition rate (%) Rice” value (rice (Oryza sativa L.) [7]) was 0%, the “Growth inhibition rate (%) Prickly sida” value [8] was 0% and the “Growth inhibition rate (%) Corn” value (corn (Zea mays L.) [9]) was 0%. The “Growth inhibition rate (%) Barnyardgrass” value [10] was 98%, the “Growth inhibition rate (%) Crabgrass” value [11] was 83% and the “Growth inhibition rate (%) Italian ryegrass” value [12] was 99%. For the same compound, the “Growth inhibition rate (%) Wheat” value [13] was 85%, the “Growth inhibition rate (%) Redroot pigweed” value [14] was 40% and the “Growth inhibition rate (%) Green foxtail” value [15] was 100%. For the same compound, the “Growth inhibition rate (%) Soybean” value [16] was 0%, the “Growth inhibition rate (%) Wild oat” value [17] was 99% and the “Growth inhibition rate (%) Rice” value (rice (Oryza sativa L.) [18]) was 99%. The “Growth inhibition rate (%) Corn” value (corn (Zea mays L.) [19]) was 90% and the “Growth inhibition rate (%) Barnyardgrass” value [20] was 100%.
For `Cc1ccc(Oc2nc3ccc(Cl)cc3o2)cc1-c1c(O)cnn(C)c1=O` [Compound 2-163], the “Growth inhibition rate (%) Wheat” value [1] was 20%, the “Growth inhibition rate (%) Redroot pigweed” value [2] was 0% and the “Growth inhibition rate (%) Green foxtail” value [3] was 99%. For the same compound, the “Growth inhibition rate (%) Velvetleaf” value [4] was 0%, the “Growth inhibition rate (%) Soybean” value [5] was 0% and the “Growth inhibition rate (%) Crabgrass” value [6] was 98%. For the same compound, the “Growth inhibition rate (%) Rice” value (rice (Oryza sativa L.) [7]) was 20%, the “Growth inhibition rate (%) Prickly sida” value [8] was 0% and the “Growth inhibition rate (%) Corn” value (corn (Zea mays L.) [9]) was 15%. The “Growth inhibition rate (%) Barnyardgrass” value [10] was 98%, the “Growth inhibition rate (%) Crabgrass” value [11] was 95% and the “Growth inhibition rate (%) Italian ryegrass” value [12] was 88%. The “Growth inhibition rate (%) Wheat” value [13] was 10%, the “Growth inhibition rate (%) Redroot pigweed” value [14] was 0% and the “Growth inhibition rate (%) Green foxtail” value [15] was 100%. For the same compound, the “Growth inhibition rate (%) Soybean” value [16] was 35%, the “Growth inhibition rate (%) Wild oat” value [17] was 75% and the “Growth inhibition rate (%) Rice” value (rice (Oryza sativa L.) [18]) was 35%. For the same compound, the “Growth inhibition rate (%) Corn” value (corn (Zea mays L.) [19]) was 80% and the “Growth inhibition rate (%) Barnyardgrass” value [20] was 100%.
For `CC(=O)Oc1cnn(C)c(=O)c1-c1cc(Oc2nc3ccc(Cl)cc3o2)ccc1C` [Compound 2-164], the “Growth inhibition rate (%) Wheat” value [1] was 0%, the “Growth inhibition rate (%) Redroot pigweed” value [2] was 0% and the “Growth inhibition rate (%) Green foxtail” value [3] was 90%. For the same compound, the “Growth inhibition rate (%) Velvetleaf” value [4] was 0%, the “Growth inhibition rate (%) Soybean” value [5] was 0% and the “Growth inhibition rate (%) Crabgrass” value [6] was 98%. The “Growth inhibition rate (%) Rice” value (rice (Oryza sativa L.) [7]) was 0%, the “Growth inhibition rate (%) Prickly sida” value [8] was 0% and the “Growth inhibition rate (%) Corn” value (corn (Zea mays L.) [9]) was 0%. The “Growth inhibition rate (%) Barnyardgrass” value [10] was 50%, the “Growth inhibition rate (%) Crabgrass” value [11] was 100% and the “Growth inhibition rate (%) Italian ryegrass” value [12] was 95%. The “Growth inhibition rate (%) Wheat” value [13] was 10%, the “Growth inhibition rate (%) Redroot pigweed” value [14] was 0% and the “Growth inhibition rate (%) Green foxtail” value [15] was 100%. For the same compound, the “Growth inhibition rate (%) Soybean” value [16] was 40%, the “Growth inhibition rate (%) Wild oat” value [17] was 90% and the “Growth inhibition rate (%) Rice” value (rice (Oryza sativa L.) [18]) was 83%. The “Growth inhibition rate (%) Corn” value (corn (Zea mays L.) [19]) was 90% and the “Growth inhibition rate (%) Barnyardgrass” value [20] was 100%.
With `CCc1ccc(Oc2nc3ccccc3o2)cc1-c1c(O)c(C)nn(C)c1=O` [Compound 2-165] the “Growth inhibition rate (%) Wheat” value [1] was 0%, the “Growth inhibition rate (%) Redroot pigweed” value [2] was 0% and the “Growth inhibition rate (%) Green foxtail” value [3] was 99%. The “Growth inhibition rate (%) Velvetleaf” value [4] was 0%, the “Growth inhibition rate (%) Soybean” value [5] was 0% and the “Growth inhibition rate (%) Crabgrass” value [6] was 98%. The “Growth inhibition rate (%) Rice” value (rice (Oryza sativa L.) [7]) was 70%, the “Growth inhibition rate (%) Prickly sida” value [8] was 0% and the “Growth inhibition rate (%) Corn” value (corn (Zea mays L.) [9]) was 0%. For the same compound, the “Growth inhibition rate (%) Barnyardgrass” value [10] was 99%, the “Growth inhibition rate (%) Crabgrass” value [11] was 70% and the “Growth inhibition rate (%) Italian ryegrass” value [12] was 0%. The “Growth inhibition rate (%) Wheat” value [13] was 0%, the “Growth inhibition rate (%) Redroot pigweed” value [14] was 0% and the “Growth inhibition rate (%) Green foxtail” value [15] was 88%. For the same compound, the “Growth inhibition rate (%) Soybean” value [16] was 25%, the “Growth inhibition rate (%) Wild oat” value [17] was 0% and the “Growth inhibition rate (%) Rice” value (rice (Oryza sativa L.) [18]) was 25%. The “Growth inhibition rate (%) Corn” value (corn (Zea mays L.) [19]) was 35% and the “Growth inhibition rate (%) Barnyardgrass” value [20] was 100%.
